The values below are quoted from earlier work in US4603142A, “Cholesterol lowering method of use” (Wisconsin Alumni Research Foundation, priority 1984, dated 1986).

The conditions of this series: compared with tocotrienols; cited from earlier work.

For Vitamin E, the Lowering of cholesterol result was “does not cause a similar lowering of cholesterol”.
